Values quoted from earlier work in patent US20220242810A1, “CRYSTALLINE CANNABIGEROL” (Purisys LLC, priority 2019, published 2022).

Assays:
5-HT1A receptor = biological target: T1, 5-HT1A receptor (Homo sapiens, UniProt P08908)
T1 sequence (P08908 1-422): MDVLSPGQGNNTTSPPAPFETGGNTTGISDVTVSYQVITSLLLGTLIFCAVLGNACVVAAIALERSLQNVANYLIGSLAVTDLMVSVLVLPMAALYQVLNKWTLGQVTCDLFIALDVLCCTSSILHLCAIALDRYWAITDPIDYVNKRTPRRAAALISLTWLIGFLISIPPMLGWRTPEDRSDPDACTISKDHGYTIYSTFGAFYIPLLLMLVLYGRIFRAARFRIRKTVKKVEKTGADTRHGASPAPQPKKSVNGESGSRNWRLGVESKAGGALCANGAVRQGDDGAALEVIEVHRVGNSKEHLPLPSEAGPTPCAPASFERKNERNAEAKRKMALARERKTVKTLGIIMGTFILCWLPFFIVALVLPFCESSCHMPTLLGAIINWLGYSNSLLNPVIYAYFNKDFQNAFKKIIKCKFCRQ

CBI receptor = CBI receptor (Homo sapiens, UniProt P21554)
CB2 receptor = CB2 receptor (Homo sapiens, UniProt P34972); settings: unknown whether agonist or antagonist
[1] = in vivo
[2] = test system: uptake of γ-aminobutyric acid (GABA)
[3] = rats
colon cancer cells = settings: one study

Sequence of CBI receptor (P21554 whole entry): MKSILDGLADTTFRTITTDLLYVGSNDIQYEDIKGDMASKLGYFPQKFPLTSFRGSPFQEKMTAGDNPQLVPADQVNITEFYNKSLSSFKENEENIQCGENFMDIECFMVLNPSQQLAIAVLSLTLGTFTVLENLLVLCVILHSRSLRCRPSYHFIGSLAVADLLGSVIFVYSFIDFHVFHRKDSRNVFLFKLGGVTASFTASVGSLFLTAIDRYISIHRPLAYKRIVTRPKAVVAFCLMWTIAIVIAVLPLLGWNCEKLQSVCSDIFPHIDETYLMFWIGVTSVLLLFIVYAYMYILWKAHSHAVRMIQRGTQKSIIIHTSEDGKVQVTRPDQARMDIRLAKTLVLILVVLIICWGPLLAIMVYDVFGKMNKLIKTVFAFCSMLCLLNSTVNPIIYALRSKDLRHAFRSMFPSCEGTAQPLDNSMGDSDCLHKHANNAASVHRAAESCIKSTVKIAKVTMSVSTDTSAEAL
Sequence of CB2 receptor (P34972 whole entry): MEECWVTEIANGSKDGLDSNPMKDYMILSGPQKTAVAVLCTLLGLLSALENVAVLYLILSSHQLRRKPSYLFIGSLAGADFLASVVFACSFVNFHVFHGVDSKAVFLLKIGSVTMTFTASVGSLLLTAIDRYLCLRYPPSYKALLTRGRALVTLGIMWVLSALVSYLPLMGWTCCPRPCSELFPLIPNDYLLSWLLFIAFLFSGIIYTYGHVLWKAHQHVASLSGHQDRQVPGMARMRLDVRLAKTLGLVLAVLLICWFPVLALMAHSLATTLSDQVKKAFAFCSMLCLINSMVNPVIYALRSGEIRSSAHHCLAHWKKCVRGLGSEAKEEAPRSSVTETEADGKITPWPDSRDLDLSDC

## CCCCCc1cc(O)c(C/C=C(\C)CCC=C(C)C)c(O)c1 [CBG, 2-[(2E)-3,7-dimethylocta-2,6-dienyl]-5-pentyl-benzene-1,3-diol]
α2-adrenergic receptor
  affinity as α2-adrenergic receptor agonist: high affinity
5-HT1A receptor
  affinity as 5-HT1A receptor antagonist: moderate affinity
CBI receptor
  affinity as CBI receptor antagonist: low affinity
CB2 receptor
  binding with the CB2 receptor: known to bind
[1]
  effect on intraocular pressure: relieve intraocular pressure
[2]
  uptake of γ-aminobutyric acid (GABA) in the brain: inhibits the uptake
[3]
  anti-nausea and anti-emetic effect: anti-nausea and anti-emetic effect
Colon cancer cells
  growth of colon cancer cells: inhibits the growth
